Where a name gives a salt, the structure may show the parent alone.
What was measured:
Conditions in all cases: averaged IC50
[1] = target: His-tagged recombinant human AXL cytoplasmic domain (Homo sapiens (Human), UniProt P30530); assay: AXL Enzyme Assay (LanthaScreen Eu Kinase Binding, TR-FRET)
In short: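 Compound displacement measured by TR-FRET after 60 min at 22 °C, using Eu-based LanthaScreen binding technology. Ratiometric emission converted to percent of control, fitted to a 4-parameter logistic curve, with IC50 at 50 POC.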

[2] = target: His-tagged recombinant human MER cytoplasmic domain (Homo sapiens (Human), UniProt Q12866); assay: MER Enzyme Assay (LanthaScreen Eu Kinase Binding, TR-FRET)
In short: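 Percent of control, derived from ratiometric TR-FRET emission, was fitted to a 4-parameter logistic curve and IC50 taken at 50 POC. Binding was read after 60 min at 22 °C using Eu-based LanthaScreen technology and recombinant His-tagged MER cytoplasmic domain.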

[3] = target: GST-tagged recombinant human TYRO3 kinase domain (Homo sapiens (Human), UniProt Q06418); assay: TYRO3 Enzyme Assay (LanthaScreen Eu Kinase Binding, TR-FRET)
In short: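 LanthaScreen Eu binding (tracer displacement) format read by TR-FRET after 60 min at 22 °C. Emission ratio converted to percent of control; IC50 taken where a 4-parameter logistic fit crosses 50 POC.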

Chain of GST-tagged recombinant human TYRO3 kinase domain (Q06418 518-790): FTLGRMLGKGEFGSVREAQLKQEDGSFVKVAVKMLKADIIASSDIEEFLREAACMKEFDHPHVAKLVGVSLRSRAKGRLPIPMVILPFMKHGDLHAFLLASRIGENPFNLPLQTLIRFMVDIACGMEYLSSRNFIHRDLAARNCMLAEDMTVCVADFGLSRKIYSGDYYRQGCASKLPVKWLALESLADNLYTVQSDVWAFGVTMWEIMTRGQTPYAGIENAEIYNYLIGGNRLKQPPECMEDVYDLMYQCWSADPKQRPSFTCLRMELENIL
Chain of His-tagged recombinant human MER cytoplasmic domain (Q12866 527-999): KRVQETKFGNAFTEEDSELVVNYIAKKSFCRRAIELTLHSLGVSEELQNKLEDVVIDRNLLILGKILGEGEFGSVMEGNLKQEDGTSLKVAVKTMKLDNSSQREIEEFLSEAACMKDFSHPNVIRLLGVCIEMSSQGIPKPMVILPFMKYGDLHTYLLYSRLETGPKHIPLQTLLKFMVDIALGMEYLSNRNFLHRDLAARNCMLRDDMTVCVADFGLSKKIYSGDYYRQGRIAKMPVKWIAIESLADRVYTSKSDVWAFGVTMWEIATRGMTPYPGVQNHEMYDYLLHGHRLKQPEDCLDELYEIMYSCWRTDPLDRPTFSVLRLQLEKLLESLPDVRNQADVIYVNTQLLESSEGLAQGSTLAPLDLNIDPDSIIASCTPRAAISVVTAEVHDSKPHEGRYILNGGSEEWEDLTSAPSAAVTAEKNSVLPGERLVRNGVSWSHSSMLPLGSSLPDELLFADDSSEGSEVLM
Chain of His-tagged recombinant human AXL cytoplasmic domain (P30530 473-894): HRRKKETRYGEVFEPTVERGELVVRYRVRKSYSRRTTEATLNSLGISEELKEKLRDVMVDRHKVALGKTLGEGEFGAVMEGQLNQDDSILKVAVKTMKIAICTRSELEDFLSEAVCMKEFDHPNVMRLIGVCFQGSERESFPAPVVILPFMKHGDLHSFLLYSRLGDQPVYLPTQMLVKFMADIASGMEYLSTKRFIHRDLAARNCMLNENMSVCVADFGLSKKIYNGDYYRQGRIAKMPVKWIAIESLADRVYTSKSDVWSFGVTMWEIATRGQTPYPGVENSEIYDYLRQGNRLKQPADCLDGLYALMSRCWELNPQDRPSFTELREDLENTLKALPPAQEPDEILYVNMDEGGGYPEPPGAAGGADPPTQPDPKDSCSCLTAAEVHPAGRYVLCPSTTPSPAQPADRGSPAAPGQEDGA

CNc1cc2c(cn1)c(-c1ccc(CN3CCN(C)CC3)cc1)nn2[C@H]1CC[C@@H](Oc2cnn(C)c2C(F)(F)F)CC1 [Example 264, N-methyl-1-((1s,4s)-4-((1-methyl-5-(trifluoromethyl)-1H-pyrazol-4-yl)oxy)cyclohexyl)-3-(4-((4-methylpiperazin-1-yl)methyl)phenyl)-1H-pyrazolo[4,3-c]pyridin-6-amine]
IC50 [1]: < 10 nM
IC50 [2]: < 10 nM
IC50 [3]: 10 to 100 nM

CCNc1cc2c(cn1)c(-c1cnn(CC(C)(C)CO)c1)nn2[C@H]1CC[C@@H](Oc2nccc(C(F)(F)F)c2F)CC1 [Example 271, 3-(4-(6-(ethylamino)-1-((1s,4s)-4-((3-fluoro-4-(trifluoromethyl)pyridin-2-yl)oxy)cyclohexyl)-1H-pyrazolo[4,3-c]pyridin-3-yl)-1H-pyrazol-1-yl)-2,2-dimethylpropan-1-ol hydrochloride]
IC50 [1]: < 10 nM
IC50 [2]: < 10 nM
IC50 [3]: 10 to 100 nM

CCNc1cc2c(cn1)c(-c1cnn([C@H]3CC[C@H](O)CC3)c1)nn2[C@H]1CC[C@@H](Oc2nccc(C(F)(F)F)c2F)CC1 [Example 272, (1R,4r)-4-(4-(6-(ethylamino)-1-((1s,4S)-4-((3-fluoro-4-(trifluoromethyl)pyridin-2-yl)oxy)cyclohexyl)-1H-pyrazolo[4,3-c]pyridin-3-yl)-1H-pyrazol-1-yl)cyclohexan-1-ol]
IC50 [1]: < 10 nM
IC50 [2]: < 10 nM
IC50 [3]: 10 to 100 nM

CCNc1cc2c(cn1)c(-c1cnn(C)c1)nn2[C@H]1CC[C@@H](Oc2cn(C)nc2C(F)(F)F)CC1 [Example 279, N-ethyl-3-(1-methyl-1H-pyrazol-4-yl)-1-((1s,4s)-4-((1-methyl-3-(trifluoromethyl)-1H-pyrazol-4-yl)oxy)cyclohexyl)-1H-pyrazolo[4,3-c]pyridin-6-amine]
IC50 [1]: < 10 nM
IC50 [2]: < 10 nM
IC50 [3]: < 10 nM

CCNc1cc2c(cn1)c(-c1cnn(C(C)(C)C#N)c1)nn2[C@H]1CC[C@@H](Oc2cn(C)nc2C(F)(F)F)CC1 [Example 280, 2-(4-(6-(ethylamino)-1-((1s,4s)-4-((1-methyl-3-(trifluoromethyl)-1H-pyrazol-4-yl)oxy)cyclohexyl)-1H-pyrazolo[4,3-c]pyridin-3-yl)-1H-pyrazol-1-yl)-2-methylpropanenitrile]
IC50 [1]: < 10 nM
IC50 [2]: < 10 nM
IC50 [3]: < 10 nM

CCNc1cc2c(cn1)c(-c1cnn(C[C@@H](O)CO)c1)nn2[C@H]1CC[C@@H](Oc2cn(C)nc2C(F)(F)F)CC1 [Example 283, ®-3-(4-(6-(ethylamino)-1-((1s,4S)-4-((1-methyl-3-(trifluoromethyl)-1H-pyrazol-4-yl)oxy)cyclohexyl)-1H-pyrazolo[4,3-c]pyridin-3-yl)-1H-pyrazol-1-yl)propane-1,2-diol]
IC50 [1]: < 10 nM
IC50 [2]: < 10 nM
IC50 [3]: < 10 nM

CNc1cc2c(cn1)c(-c1ccc(S(C)(=O)=O)cc1)nn2[C@H]1CC[C@@H](Oc2cn(C)nc2C(F)(F)F)CC1 [Example 284, N-methyl-1-((1s,4s)-4-((1-methyl-3-(trifluoromethyl)-1H-pyrazol-4-yl)oxy)cyclohexyl)-3-(4-(methylsulfonyl)phenyl)-1H-pyrazolo[4,3-c]pyridin-6-amine]
IC50 [1]: < 10 nM
IC50 [2]: < 10 nM
IC50 [3]: < 10 nM

CNc1cc2c(cn1)c(-c1ccc(CN3CCN(C)CC3)cc1)nn2[C@H]1CC[C@@H](Oc2cn(C)nc2C(F)(F)F)CC1 [Example 285, N-methyl-1-((1s,4s)-4-((1-methyl-3-(trifluoromethyl)-1H-pyrazol-4-yl)oxy)cyclohexyl)-3-(4-((4-methylpiperazin-1-yl)methyl)phenyl)-1H-pyrazolo[4,3-c]pyridin-6-amine]
IC50 [1]: < 10 nM
IC50 [2]: < 10 nM
IC50 [3]: < 10 nM

CNc1cc2c(cn1)c(-c1ccc3c(c1)CN(C)C3=O)nn2[C@H]1CC[C@@H](Oc2cn(C)nc2C(F)(F)F)CC1 [Example 286, 2-methyl-5-(1-((1s,4s)-4-((1-methyl-3-(trifluoromethyl)-1H-pyrazol-4-yl)oxy)cyclohexyl)-6-(methylamino)-1H-pyrazolo[4,3-c]pyridin-3-yl)isoindolin-1-one]
IC50 [1]: < 10 nM
IC50 [2]: < 10 nM
IC50 [3]: < 10 nM

CCNc1cc2c(cn1)c(-c1ccc3c(c1)CNC3=O)nn2[C@H]1CC[C@@H](Oc2cn(C)nc2C(F)(F)F)CC1 [Example 287]
IC50 [1]: < 10 nM
IC50 [2]: < 10 nM
IC50 [3]: < 10 nM

CCNc1cc2c(cn1)c(-c1ccc3c(c1)CN(C)C3=O)nn2[C@H]1CC[C@@H](Oc2cn(C)nc2C(F)(F)F)CC1 [Example 288, 5-(6-(ethylamino)-1-((1s,4s)-4((1-methyl-3-(trifluoromethyl)-1H-pyrazol-4-yl)oxy)cyclohexyl)-1H-pyrazolo[4,3-c]pyridin-3-yl)-2-methylisoindolin-1-one]
IC50 [1]: < 10 nM
IC50 [2]: < 10 nM
IC50 [3]: < 10 nM

CCNc1cc2c(cn1)c(-c1ccc(CN3CCN(C)CC3)cc1)nn2[C@H]1CC[C@@H](Oc2cn(C)nc2C(F)(F)F)CC1 [Example 289, N-ethyl-1-((1s,4s)-4-((1-methyl-3-(trifluoromethyl)-1H-pyrazol-4-yl)oxy)cyclohexyl)-3-(4-((4-methylpiperazin-1-yl)methyl)phenyl)-1H-pyrazolo[4,3-c]pyridin-6-amine]
IC50 [1]: < 10 nM
IC50 [2]: < 10 nM
IC50 [3]: < 10 nM

CCNc1cc2c(cn1)c(-c1ccc(S(C)(=O)=O)cc1)nn2[C@H]1CC[C@@H](Oc2cn(C)nc2C(F)(F)F)CC1 [Example 290, N-ethyl-1-((1s,4s)-4-((1-methyl-3-(trifluoromethyl)-1H-pyrazol-4-yl)oxy)cyclohexyl)-3-(4-(methylsulfonyl)phenyl)-1H-pyrazolo[4,3-c]pyridin-6-amine]
IC50 [1]: < 10 nM
IC50 [2]: < 10 nM
IC50 [3]: < 10 nM

CCNc1cc2c(cn1)c(-c1ccc(CN3CCN(C)CC3)cc1)nn2[C@H]1CC[C@@H](Oc2cnn(C)c2C(F)(F)F)CC1 [Example 293, N-ethyl-1-((1s,4s)-4-((1-methyl-5-(trifluoromethyl)-1H-pyrazol-4-yl)oxy)cyclohexyl)-3-(4-((4-methylpiperazin-1-yl)methyl)phenyl)-1H-pyrazolo[4,3-c]pyridin-6-amine]
IC50 [1]: < 10 nM
IC50 [2]: < 10 nM
IC50 [3]: 10 to 100 nM

CCNc1cc2c(cn1)c(-c1ccn(C)c(=O)c1)nn2[C@H]1CC[C@@H](Oc2nccc(C(F)(F)F)c2F)CC1 [Example 297, 4-(6-(ethylamino)-1-((1s,4s)-4-((3-fluoro-4-(trifluoromethyl)pyridin-2-yl)oxy)cyclohexyl)-1H-pyrazolo[4,3-c]pyridin-3-yl)-1-methylpyridin-2(1H)-one]
IC50 [1]: < 10 nM
IC50 [2]: < 10 nM
IC50 [3]: 10 to 100 nM

CCNc1cc2c(cn1)c(-c1ccc(=O)n(C)c1)nn2[C@H]1CC[C@@H](Oc2nccc(C(F)(F)F)c2F)CC1 [Example 298, 5-(6-(ethylamino)-1-((1s,4s)-4-((3-fluoro-4-(trifluoromethyl)pyridin-2-yl)oxy)cyclohexyl)-1H-pyrazolo[4,3-c]pyridin-3-yl)-1-methylpyridin-2(1H)-one]
IC50 [1]: < 10 nM
IC50 [2]: < 10 nM
IC50 [3]: 10 to 100 nM

CCNc1cc2c(cn1)c(-c1cnn(C(C)(C)CO)c1)nn2[C@H]1CC[C@@H](Oc2nccc(C(F)(F)F)c2F)CC1 [Example 299, 2-(4-(6-(ethylamino)-1-((1s,4s)-4-((3-fluoro-4-(trifluoromethyl)pyridin-2-yl)oxy)cyclohexyl)-1H-pyrazolo[4,3-c]pyridin-3-yl)-1H-pyrazol-1-yl)-2-methylpropan-1-ol]
IC50 [1]: < 10 nM
IC50 [2]: < 10 nM
IC50 [3]: 10 to 100 nM

CCNc1cc2c(cn1)c(-c1cnn(CC(C)(C)O)c1)nn2[C@H]1CC[C@@H](Oc2nccc(C(F)(F)F)c2F)CC1 [Example 300, 1-(4-(6-(ethylamino)-1-((1s,4s)-4-((3-fluoro-4-(trifluoromethyl)pyridin-2-yl)oxy)cyclohexyl)-1H-pyrazolo[4,3-c]pyridin-3-yl)-1H-pyrazol-1-yl)-2-methylpropan-2-ol]
IC50 [1]: < 10 nM
IC50 [2]: < 10 nM
IC50 [3]: 10 to 100 nM

CCNc1cc2c(cn1)c(-c1cnc(C)o1)nn2[C@H]1CC[C@@H](Oc2nccc(C(F)(F)F)c2F)CC1 [Example 308, N-ethyl-1-((1s,4s)-4-((3-fluoro-4-(trifluoromethyl)pyridin-2-yl)oxy)cyclohexyl)-3-(2-methyloxazol-5-yl)-1H-pyrazolo[4,3-c]pyridin-6-amine]
IC50 [1]: < 10 nM
IC50 [2]: < 10 nM
IC50 [3]: 100 to 1000 nM

CCNc1cc2c(cn1)c(-c1cnn(C)c1)nn2[C@H]1CC[C@@H](Oc2c[nH]nc2C(F)(F)F)CC1 [Example 311, N-ethyl-3-(1-methyl-1H-pyrazol-4-yl)-1-((1s,4s)-4-((3-(trifluoromethyl)-1H-pyrazol-4-yl)oxy)cyclohexyl)-1H-pyrazolo[4,3-c]pyridin-6-amine]
IC50 [1]: < 10 nM
IC50 [2]: < 10 nM
IC50 [3]: < 10 nM

CCNc1cc2c(cn1)c(-c1cnn(C(C)(C)C#N)c1)nn2[C@H]1CC[C@@H](Oc2cn[nH]c2C(F)(F)F)CC1 [Example 312, 2-(4-(6-(ethylamino)-1-((1s,4s)-4-((5-(trifluoromethyl)-1H-pyrazol-4-yl)oxy)cyclohexyl)-1H-pyrazolo[4,3-c]pyridin-3-yl)-1H-pyrazol-1-yl)-2-methylpropanenitrile]
IC50 [1]: < 10 nM
IC50 [2]: < 10 nM
IC50 [3]: < 10 nM

CCNc1cc2c(cn1)c(C1CCN(C)CC1)nn2[C@H]1CC[C@@H](Oc2cn[nH]c2C(F)(F)F)CC1 [Example 313, N-ethyl-3-(1-methylpiperidin-4-yl)-1-((1s,4s)-4-((5-(trifluoromethyl)-1H-pyrazol-4-yl)oxy)cyclohexyl)-1H-pyrazolo[4,3-c]pyridin-6-amine]
IC50 [1]: < 10 nM
IC50 [2]: < 10 nM
IC50 [3]: < 10 nM

Source: patent US11247990B1, “Bicyclic fused pyridine compounds as inhibitors of TAM kinases” (ARRAY BIOPHARMA INC., priority 2017, dated 2022)
